Measurements reported in patent US9320745B2, “Use of cholest-4-en-3-one derivatives for obtaining a cytoprotective drug” (TROPHOS, priority 2006, dated 2016).

How the values were obtained:
[1] = test system: rabbit ventricular cardiomyocytes; experiment: Contractile dysfunction test induced by doxorubicin (sarcomere shortening of isolated cardiomyocytes); format: cell-based
Method: (§1) Isolated ventricular cells are obtained from New Zealand male rabbit hearts as described in A. d'Anglemont de Tassigny et al., Fund. Clin. Pharmacol., 18: pp. 531-38, 2004. Briefly, the rabbits (2.0-2.5 kg) are anaesthesized with a pentobarbital (50 mg/kg) solution and then receive heparin (200 IU/kg). The hearts are excised and immediately perfused, for 10-15 minutes by means of a Langendorff apparatus without recirculation with an oxygenated (calcium-free) tyrode isotonic solution (95%, 2-5% CO2) (in mM: NaCl 135, KCl 5.4, Na2PO4 0.33, MgCl2 1.0, HEPES 10, pH adjusted to 7.4 with 1N NaOH at 37° C., 280-300 mOsmol/kgH2O). Next, all the hearts were perfused for 3 minutes in a “recirculation” mode with the same calcium-free Tyrode solution (coronary flow rate, 10-15 mL/min) added with 1 mg/mL of type II collagenase and 0.28 mg/mL of type XIV protease. Finally all the hearts are perfused in a mode without recirculation with the same solution of Tyrode supplemented with 0.3 mM CaCl2 for 10 min. The left ventricle is removed and cut into small pieces; cell dissociation is achieved by mild mechanical stirring. Extracellular calcium is added by increments every 15 minutes, in order to reach a physiological concentration of 1.0 mM. The isolated myocytes are maintained in a medium without serum containing (in mM) NaCl 110, KCl 5.4, Na2PO4 0.33, NaHCO3 25, Glucose 5, MgCl2 0.8, CaCl2 1, pH adjusted to 7.4, right up to 1 h30 before experimentation.
The myocytes are transferred into a chamber at 37° C., continuously perfused and positioned on the stage of an inverted microscope. The chamber is perfused with a physiological buffer containing (in mM): NaCl-140; KCl 5.4; CaCl2 1; MgCl2 0.8; HEPES 10 and glucose 5.6 (pH=7.4; 290 mOsmol/kgH2O).
Contraction of the myocytes is induced once a second (1 Hz) with platinum field electrodes placed in the chamber and connected to a simulator. The images are captured continuously with a ×20 objective and transmitted to a CCD camera at a rate of 240 samples/s. […]
The myocytes were selected for the study according to the following criterion: a rod-like aspect with very apparent striations and no intracellular vacuola, no spontaneous contraction when they are stimulated with 1 mM Ca^2+, and with constant rest length and contraction amplitude. The length of the sarcomers was measured by a video image analysis program and the data were captured at a rate of 240 samples/s. […]
(§2) Apoptosis is induced in isolated cardiomyocytes by exposing them for 3 to 8 hrs to 1 μM of doxorubicin added in an isotonic solution containing (in mM) NaCl 110, KCl 5.4, Na2PO4 0.33, NaHCO3 25, Glucose 5, MgCl2 0.8, CaCl2 1, pH adjusted to 7.4. […] The contractility of cardiomyocytes was measured every hour during the 8 hrs of exposure to doxorubicin. […]

[2] = test system: rabbit ventricular cardiomyocytes; experiment: Apoptosis by annexin V marking in doxorubicin-exposed cardiomyocytes; format: cell-based; conditions: 3 hrs after doxorubicin, control 100%
Method: as §1
Marking phosphatidylserine with annexin V was used as a quantitative method for measuring apoptosis by using the MiniMacs cell isolation kit (Miltenyi Biotec, Bergisch, Gladbach, Germany). Briefly, the cells exposing phosphatidylserine are marked with annexin V microbeads magnetically, and then passed into a column placed in a magnetic field. The marked cells (which have magnetically marked phosphatidylserine) are retained in the column whereas the non-marked ones (necrotic cells and non-apoptotic cells) are not retained. The column is removed from the magnetic field; the magnetically retained cells exposing phosphatidylserine are eluted as a positive fraction and counted with a Mallassez cell counter. The percentage of apoptotic cells is then referred to the initial number of cells.
as §2, with “7.4. Annexin V marking was carried out 3 hrs after the beginning of exposure to doxorubicin since this phenomenon appears very early in the apoptotic cascade.” for “7.4.”

caspase-3 = experiment: Apoptosis by caspase-3 activity measurement in doxorubicin-exposed cardiomyocytes; format: cell-based, rabbit; conditions: 8 hrs after exposure, control 18±9 fmol/min
Method: as §1
Caspase-3 activity is used as a quantitative method for measuring apoptosis. Briefly, the cells are lysed and the supernatant is used for caspase-3 activity measurement by using the AK-005 kit (Biomol Research Laboratories, Plymouth Meeting, Pa., USA). The fluorogenic substrate for measuring caspase-3 activity (DEVD) is marked with the fluorochrome, 7-amino-4-methyl coumarin (AMC) which produces […] fluorescence detectable in UV light at 360/460 nm for 210 min. AMC is released from the substrate by cleavage by caspase-3, the expression of the enzyme is expressed in fmol/min.
Apoptosis is induced in isolated cardiomyocytes by exposing them for 3 to 8 hrs to 1 μM of doxorubicin added in an isotonic solution containing (in mM) NaCl 110, KCl 5.4, Na2PO4 0.33, NaHCO3 25, Glucose 5, MgCl2 0.8, CaCl2 1, pH adjusted to 7.4. Annexin V marking was carried out 3 hrs after the beginning of exposure to doxorubicin since this phenomenon appears very early in the apoptotic cascade. Caspase-3 activity measurements were conducted 8 hrs after exposure to doxorubicin since this phenomenon takes place later in the apoptosis phenomenon. The contractility of cardiomyocytes was measured every hour during the 8 hrs of exposure to doxorubicin. After all the treatments, the cells were compared with control cardiomyocytes not exposed to doxorubicin. […]

Male CD1 adult mice = experiment: In vivo model of acute hepatotoxicity induced by Jo2 anti-Fas antibody (ALAT assay, survival)
Source text: An acute hepatic damage model may be induced by a single injection of the Jo2 anti-Fas antibody (Ogasawara et al., Nature, August 1993), producing severe hepatic damages and resembling viral, auto-immune or drug-induced hepatitis.
Alanine Aminotransferase (ALAT) also called Serum Glutamic Pyruvic Transaminase (SGPT) is an enzyme present in hepatocytes.
The conducted experimentation consisted in intoxicating animals with Jo2 followed by an assay of ALATs and of testing the cholest-4-en-3-one oxime capability of protecting hepatocytes.
Male CD1 adult mice from the breeder “Elevage Janvier”, (Le Genest-Saint-Isle, France) were used. The animals were identified individually and had free access to water and food.
The stock solution of monoclonal hamster anti-mouse CD95 (Fas) antibody called Jo2, from Pharmingen (BD Biosciences, ref. 554254 batch 66081) is at a concentration of 1 mg/mL in water. The dilutions used are produced in 0.9% sodium chloride in water.
The desired amount of cholest-4-en-3-one oxime is weighed and milled into a fine powder, and then suspended (60 mg/ml) in maize oil. The compound is administered orally (by force-feeding) at a concentration of 5 ml/kg.
A pre-treatment with cholest-4-en-3-one oxime is carried out at a dose of 300 mg/kg per oral administration 4 hrs before administering the Jo2 antibody. […]

mice = experiment: Toxicological study in mice; format: in vivo; conditions: oral, sub-cutaneous, intra-peritoneal and intravenous routes, doses up to 300 mg/kg/day, daily, as far as 28 days
monkeys = experiment: Toxicological study in monkeys; format: in vivo; conditions: oral, increasing daily doses up to 1,500 mg/kg over 10 days

Row | shortening of the peak relatively to the base line ([1]; 1 μM doxorubicin alone, after 4 hours of exposure, control −19.49±2.06%, n=5) [%] | Structure (SMILES) | change in % of annexin V marking ([2]; 1 μM doxorubicin alone) [%] | caspase-3 activity (caspase-3; 1 μM doxorubicin alone) [fmol/min] | shortening of the peak relatively to the base line ([1]; 0.3 μM compound, 15 min pretreatment, 1 μM doxorubicin, after 4 hrs of exposure) [%] | shortening of the peak relatively to the base line ([1]; 1 μM compound, 15 min pretreatment, 1 μM doxorubicin, after 4 hrs of exposure) [%] | shortening of the peak relatively to the base line ([1]; 3 μM compound, 15 min pretreatment, 1 μM doxorubicin, after 4 hrs of exposure) [%] | change in % of annexin V marking ([2]; doxorubicin + 0.3 μM compound) [%] | change in % of annexin V marking ([2]; doxorubicin + 1 μM compound) [%] | change in % of annexin V marking ([2]; doxorubicin + 3 μM compound) [%] | caspase-3 activity (caspase-3; doxorubicin + 0.3 μM compound) [fmol/min] | caspase-3 activity (caspase-3; doxorubicin + 1 μM compound) [fmol/min] | caspase-3 activity (caspase-3; doxorubicin + 3 μM compound) [fmol/min] | ALAT activity (U/L) Mean +/− SEM (n) (Male CD1 adult mice; 300 mg/kg oral 4 hrs before Jo2 125 μg/kg i.p., measured 24 hrs after Jo2, control 2,586 ± 474, p = 0.0037) | death of mice within 24 hrs following the Jo2 injection (Male CD1 adult mice; 300 mg/kg oral, 4 hrs before the Jo2 antibody) | toxicity (mice) | toxicity (monkeys)
1 | −53.20±7.70 | COc1cccc2c1C(=O)c1c(O)c3c(c(O)c1C2=O)C[C@@](O)(C(=O)CO)C[C@@H]3O[C@H]1C[C@H](N)[C@H](O)[C@H](C)O1 [doxorubicin, reference compound] | 291 | 120 ± 15 | – | – | – | – | – | – | – | – | – | – | – | – | –
2 | – | CC(C)CCC[C@@H](C)[C@H]1CC[C@H]2[C@@H]3CCC4=CC(=NO)CC[C@]4(C)[C@H]3CC[C@]12C [cholest-4-en-3-one oxime] | – | – | −25.35±0.18 | −15.66±5.72 | −13.95±3.17 | 130 | 121 | 115.5 | 33 ± 9 | 18 ± 8 | 11 ± 4 | 1,136 ± 175 (20) U/L | prevent the death of mice | did not show any significant toxicity | did not reveal any toxicity
